Laboratory results taken from the NIST ThermoML archive (doi:10.1021/je060271a).
± gives the expanded uncertainty stated by the source.

Details: 283.15 K, Liquid, Vibrating tube method

CCCCCC(=O)OCC(COC(=O)CCCCC)(COC(=O)CCCCC)COC(=O)CCCCC [pentaerythritol tetrahexanoate]
mass density (21616 kPa): 1016.3 ± 1.2 kg/m3
mass density (21632 kPa): 1016.3 ± 1.2 kg/m3
mass density (21648 kPa): 1016.3 ± 1.2 kg/m3
mass density (21667 kPa): 1016.2 ± 1.2 kg/m3
mass density (21684 kPa): 1016.3 ± 1.2 kg/m3
mass density (21699 kPa): 1016.3 ± 1.2 kg/m3
mass density (21715 kPa): 1016.3 ± 1.2 kg/m3
mass density (21734 kPa): 1016.4 ± 1.2 kg/m3
mass density (21766 kPa): 1016.3 ± 1.2 kg/m3
mass density (21786 kPa): 1016.3 ± 1.2 kg/m3
mass density (21802 kPa): 1016.5 ± 1.2 kg/m3
mass density (21821 kPa): 1016.3 ± 1.2 kg/m3
mass density (21837 kPa): 1016.4 ± 1.2 kg/m3
mass density (21853 kPa): 1016.4 ± 1.2 kg/m3
mass density (21870 kPa): 1016.3 ± 1.2 kg/m3
mass density (21887 kPa): 1016.3 ± 1.2 kg/m3
mass density (21904 kPa): 1016.4 ± 1.2 kg/m3
mass density (21923 kPa): 1016.5 ± 1.2 kg/m3
mass density (21940 kPa): 1016.5 ± 1.2 kg/m3
mass density (21959 kPa): 1016.4 ± 1.2 kg/m3
mass density (21976 kPa): 1016.5 ± 1.2 kg/m3
mass density (21992 kPa): 1016.5 ± 1.2 kg/m3
mass density (22008 kPa): 1016.5 ± 1.2 kg/m3
mass density (22028 kPa): 1016.5 ± 1.2 kg/m3
mass density (22044 kPa): 1016.5 ± 1.2 kg/m3
mass density (22061 kPa): 1016.5 ± 1.2 kg/m3
mass density (22081 kPa): 1016.5 ± 1.2 kg/m3
mass density (22098 kPa): 1016.4 ± 1.2 kg/m3
mass density (22117 kPa): 1016.6 ± 1.2 kg/m3
mass density (22134 kPa): 1016.7 ± 1.2 kg/m3
mass density (22150 kPa): 1016.5 ± 1.2 kg/m3
mass density (22170 kPa): 1016.6 ± 1.2 kg/m3
mass density (22187 kPa): 1016.6 ± 1.2 kg/m3
mass density (22204 kPa): 1016.7 ± 1.2 kg/m3
mass density (22224 kPa): 1016.5 ± 1.2 kg/m3
mass density (22241 kPa): 1016.6 ± 1.2 kg/m3
mass density (22261 kPa): 1016.5 ± 1.2 kg/m3
mass density (22278 kPa): 1016.5 ± 1.2 kg/m3
mass density (22295 kPa): 1016.5 ± 1.2 kg/m3
mass density (22316 kPa): 1016.6 ± 1.2 kg/m3
mass density (22333 kPa): 1016.6 ± 1.2 kg/m3
mass density (22350 kPa): 1016.7 ± 1.2 kg/m3
mass density (22367 kPa): 1016.7 ± 1.2 kg/m3
mass density (22386 kPa): 1016.7 ± 1.2 kg/m3
mass density (22402 kPa): 1016.7 ± 1.2 kg/m3
mass density (22421 kPa): 1016.6 ± 1.2 kg/m3
mass density (22436 kPa): 1016.7 ± 1.2 kg/m3
mass density (22452 kPa): 1016.7 ± 1.2 kg/m3
mass density (22468 kPa): 1016.6 ± 1.2 kg/m3
mass density (22487 kPa): 1016.8 ± 1.2 kg/m3
mass density (22503 kPa): 1016.7 ± 1.2 kg/m3
mass density (22522 kPa): 1016.7 ± 1.2 kg/m3
mass density (22538 kPa): 1016.8 ± 1.2 kg/m3
mass density (22555 kPa): 1016.8 ± 1.2 kg/m3
mass density (22574 kPa): 1016.7 ± 1.2 kg/m3
mass density (22590 kPa): 1016.8 ± 1.2 kg/m3
mass density (22607 kPa): 1016.7 ± 1.2 kg/m3
mass density (22623 kPa): 1016.8 ± 1.2 kg/m3
mass density (22643 kPa): 1016.7 ± 1.2 kg/m3
mass density (22660 kPa): 1016.7 ± 1.2 kg/m3
mass density (22676 kPa): 1016.8 ± 1.2 kg/m3
mass density (22695 kPa): 1016.9 ± 1.2 kg/m3
mass density (22710 kPa): 1016.9 ± 1.2 kg/m3
mass density (22728 kPa): 1016.8 ± 1.2 kg/m3
mass density (22744 kPa): 1016.8 ± 1.2 kg/m3
mass density (22760 kPa): 1016.9 ± 1.2 kg/m3
mass density (22779 kPa): 1016.9 ± 1.2 kg/m3
mass density (22795 kPa): 1017 ± 1.2 kg/m3
mass density (22810 kPa): 1016.8 ± 1.2 kg/m3
mass density (22826 kPa): 1017 ± 1.2 kg/m3
mass density (22845 kPa): 1017 ± 1.2 kg/m3
mass density (22861 kPa): 1016.8 ± 1.2 kg/m3
mass density (22880 kPa): 1017 ± 1.2 kg/m3
